Results taken from patent publication US8603493B2, “Carbosilane dendrimers, preparation method thereof and use of same” (Dendrico, S.L., priority 2005, dated 2013).
Entries after “also recorded” stand apart in the source; their conditions may differ.

Legend:
PBMC = assay: Flow cytometry test (size and complexity; live cells vs apoptosis-necrosis); type: cell-based, human; settings: 72 hours, same concentrations as Trypan Blue test
Description: The evaluation time on this occasion was 72 hours. The toxicity was evaluated on PBMC, produced in the manner described in Example 38. […] The ODN used was PPT, in the following way: • [ODN PPT] in the complex with the CBS: 2.57 (0.88 μM) • [ODN PPT] in the complex with SF: 0.34 μM • [ODN PPT] in the complex with G4: 1 μM […] The cells were either incubated with said complexes, a mixture of equal volume which contained ODN without CBS, a mixture which contained dendrimer alone, or with a mixture which contained only RPMI+complete medium which was used as negative control. The cells and/or the supernatant were then collected to be analysed by flow cytometry, confocal microscopy or cell DNA extraction. The percentages of cells with size and complexity corresponding to cells in apoptosis-necrosis were compared with the live cells. For this, the size (FW) and the complexity (SD) was evaluated by flow cytometry. To do this, a region was drawn around the cells with FW and SD corresponding to cells in apoptosis-necrosis and another around the cells with FW and SD corresponding to live cells. The percentages of cells present in each slide were compared. The graphics produced are shown in FIG. 15, wherein the X-axis represents the size (FW) and the Y-axis the complexity (SD). […] The cloud of dark cells corresponds to cells in apoptosis necrosis. The live cells are represented in grey.

erythrocytes = assay: Visual examination of erythrocytes (hemagglutination); type: cell-based, human
Description: A visual examination was carried out to detect the presence/absence of hemagglutination and quantification of haemoglobin release (haemolysis test) by spectrophotometry. ClNH4 was excluded from the dendrimers of previous Example 38, as the result had been more toxic for lymphocytes, and the results were compared with those produced for a PAMAN type generation 4 dendrimer.
The erythrocytes were obtained after being separated from the PBMC using the same Ficoll gradient cited in the previous Example. They were diluted in PBS to be able to view them individually. The cells were resuspended in 500 μl of PBS and were seeded in a 24-well plate (300,000/well). As positive control, cells treated with 0.2% Triton X-100 were used. Negative control: PBS (blank). The erythrocytes were incubated with different dendrimer concentrations. The presence of hemagglutination, number of cells and release of haemoglobin by hour were evaluated by collecting 100 μl of supernatant and measuring absorbencies by spectrophotometry using a plate reader at a wavelength of 550 nm and 690 nm as reference.

ODN PPT = assay: Stability of the dendriplexes in aqueous solution in accordance with time; type: physicochemical; settings: after 24 hours
Description: Different samples of dendriplexes were prepared in aqueous solution formed between the ODN PPT and dendrimers IM8, IM16 and NN at a 2/1 charge ratio according to Example 31 and electrophoresis was performed after different times since the preparation of the samples, specifically 0 hours, 6 hours and 24 hours. During those times, the dendriplexes were maintained in conditions which imitate the physiological conditions: 37° C., in 5% CO2 atmosphere. The results are shown in FIG. 5, wherein the gel of FIG. 5a corresponds to the sample of 0 hours, that of FIG. 5b to the samples after 6 hours and that of FIG. 5c to the samples after 24 hours. In the three cases, a, b and c, the samples appear in the lanes following this order: […]

ODN = assay: Complex formation between CBS and ODN (agarose gel electrophoresis); type: binding; settings: 3% agarose gel, RPMI, excess positive charge (+/−) 2/1 and higher
Excerpt: The oligonucleotidic sequences used were antisense sequences (complementary) directed against HIV RNA. The length varied from 15 to 28 bases, being of phosphorothioate nature. The specific ODN used and their sequences are shown below in Table 1.
Several of the ODN were used fluorescent at the 5′ end. This is indicated by adding the letter F to its notation. Thus, “GF” makes reference to the fluorescent anti-gag ODN at end 5′, whilst “RF” makes reference to the anti-Rev ODN fluorescent at end 5′.
Different agarose concentrations were used to show the migration of the ODN and the dendriplexes, bearing in mind the small size of the ODN used. Finally, a 3% agarose concentration in TAE 1× was chosen as the best. The migration of non-fluorescent ODNs was compared with fluorescent ones, both migrating at the same height but the latter increasing the signal perceived considerably. Using them, it thus avoided the isotopic labelling of the ODN. A double well was manufactured to prepare these gels, to permit load volumes of 60 μl, of which 50 μl was mixture volume of the samples in RPMI and 10 μl load buffer with glycerol. As size marker, a ladder of 100 base pairs was used (Gibco BRL®).
For the complex formations in all the tests performed, both on gels and on cells the ratio between the number of positive and negative charges in said complex was taken. As published by different authors in studies with PAMAM dendrimers, it is necessary that the complex formed has an excess positive charge to facilitate its binding to the cell membrane glycoproteins, negatively charged, thus starting the endocytosis process. Likewise, an excess of positive charge is added to ensure the formation of the dendrimer-DNA complex. Therefore, the complexes between the CBS dendrimers and the different nucleic acids were formed in excess number of positive charges (provided by the CBS) compared with negative charges (provided by the ODN). Nevertheless, different charge ratios were tested, making the calculations based in the number of dendrimer charges (fixed) and the number of negative charges of the ODN (also fixed). The 2/1 ratio of positive/negative charges was fixed as sufficient in all dendrimers to form the complexes with a total positive charge, although in some experiments a balance was provided of an equal number of negative charges as positive charges or excess negative charges.
In all the tests, a complex formation volume of 60 μl was used, using phenol red without RPMI serum as support medium.
Tests of complex formation were used with the dendrimers of the invention IM8, ClNH4, NN, Phe and IM16.
The synthesis process of the CBS used in this work begins from an initial nucleus of common structure, which is ended functionalizing in the periphery by the use of different functional groups, which are those which provide the positive charge to the dendrimer and determine the differences between themselves, the dendrimeric nucleus being of apolar nature. Since some of the bonds of the functional groups used to the dendrimeric nucleus could be unstable in aqueous solution, tests were performed to determine if the DNA retention in agarose gels and, therefore, the complex formation between the CBS and the DNA could be due to the total dendrimer structure being conserved or in contrast, the terminal functional groups came away from the moiety of the dendrimeric core which are responsible for the DNA retention. For this, gels were used in which complexes were formed between the ODNs and the integral CBS and those formed supposedly between the ODNs and the terminal functional groups with which the carbosilane skeleton had functionalized, in this case quaternized dimethylethanolamine. As has previously been commented, those positively charged molecules, which are bound to the dendrimer as terminal functional groups, are those which give the dendrimer its charge. As control, the mixtures of ODN-dendrimers, ODN-monomers and ODN alone were compared. […]

Structure (SMILES)	Apoptosis-necrosis (%) (PBMC)	Live cells (%) (PBMC)	biocompatibility profile, toxicity on lymphocytes and erythrocytes taken together (erythrocytes)	induction of hemagglutination / haemolysis (erythrocytes)	order of hemagglutination from greater to lesser (erythrocytes)	Visual examination of erythrocytes incubated with dendrimers (erythrocytes; 1 μM)	Visual examination of erythrocytes incubated with dendrimers (erythrocytes; 5 μM)	Visual examination of erythrocytes incubated with dendrimers (erythrocytes; 10 μM)	Visual examination of erythrocytes incubated with dendrimers (erythrocytes; 20 μM)	ODN released from dendrimer (ODN PPT)	complex formation with ODN (retention of DNA migration in gel) (ODN)
CN(CCO[Si](C)(C)CCC[Si](C)(CCC[Si](CCC[Si](C)(CCC[Si](C)(C)OCCN(C)CC[N+](C)(C)C)CCC[Si](C)(C)OCCN(C)CC[N+](C)(C)C)(CCC[Si](C)(CCC[Si](C)(C)OCCN(C)CC[N+](C)(C)C)CCC[Si](C)(C)OCCN(C)CC[N+](C)(C)C)CCC[Si](C)(CCC[Si](C)(C)OCCN(C)CC[N+](C)(C)C)CCC[Si](C)(C)OCCN(C)CC[N+](C)(C)C)CCC[Si](C)(C)OCCN(C)CC[N+](C)(C)C)CC[N+](C)(C)C.[I-].[I-].[I-].[I-].[I-].[I-].[I-].[I-] [NN, 2G-[Si(O(CH2)2N(Me)(CH2)2NMe3^+I^−)]8]	24%	70%	better biocompatibility profiles	does not	G4>Phe>IM16>IM8>NN	O.K	O.K	Ag+/−	No cells	~100%	capable of forming complexes with the ODN
C[Si](C)(CCCN)CCC[Si](C)(CCC[Si](C)(C)CCCN)CCC[Si](CCC[Si](C)(CCC[Si](C)(C)CCCN)CCC[Si](C)(C)CCCN)(CCC[Si](C)(CCC[Si](C)(C)CCCN)CCC[Si](C)(C)CCCN)CCC[Si](C)(CCC[Si](C)(C)CCCN)CCC[Si](C)(C)CCCN.Cl.Cl.Cl.Cl.Cl.Cl.Cl.Cl [ClNH4, 2G-[Si(CH2)3NH3^+Cl^−]8]	26%	71%	–	–	–	–	–	–	–	–	capable of retaining the DNA also with all the charge ratios evaluated
C[N+](C)(C)CCO[Si](C)(C)CCC[Si](C)(CCC[Si](CCC[Si](C)(CCC[Si](C)(C)OCC[N+](C)(C)C)CCC[Si](C)(C)OCC[N+](C)(C)C)(CCC[Si](C)(CCC[Si](C)(C)OCC[N+](C)(C)C)CCC[Si](C)(C)OCC[N+](C)(C)C)CCC[Si](C)(CCC[Si](C)(C)OCC[N+](C)(C)C)CCC[Si](C)(C)OCC[N+](C)(C)C)CCC[Si](C)(C)OCC[N+](C)(C)C.[I-].[I-].[I-].[I-].[I-].[I-].[I-].[I-] [IM8, 2G-[Si(OCH2CH2NMe3^+I^−)]8]	36%	59%	–	–	G4>Phe>IM16>IM8>NN	O.K	Ag+	Ag+	No cells	~100%	capable of retaining the DNA; also recorded: capable of retaining the migration of all the ODN
C[N+](C)(C)CCOc1cc(CO[Si](C)(C)CCC[Si](C)(CCC[Si](CCC[Si](C)(CCC[Si](C)(C)OCc2cc(OCC[N+](C)(C)C)cc(OCC[N+](C)(C)C)c2)CCC[Si](C)(C)OCc2cc(OCC[N+](C)(C)C)cc(OCC[N+](C)(C)C)c2)(CCC[Si](C)(CCC[Si](C)(C)OCc2cc(OCC[N+](C)(C)C)cc(OCC[N+](C)(C)C)c2)CCC[Si](C)(C)OCc2cc(OCC[N+](C)(C)C)cc(OCC[N+](C)(C)C)c2)CCC[Si](C)(CCC[Si](C)(C)OCc2cc(OCC[N+](C)(C)C)cc(OCC[N+](C)(C)C)c2)CCC[Si](C)(C)OCc2cc(OCC[N+](C)(C)C)cc(OCC[N+](C)(C)C)c2)CCC[Si](C)(C)OCc2cc(OCC[N+](C)(C)C)cc(OCC[N+](C)(C)C)c2)cc(OCC[N+](C)(C)C)c1.[I-].[I-].[I-].[I-].[I-].[I-].[I-].[I-].[I-].[I-].[I-].[I-].[I-].[I-].[I-].[I-] [Phe, 2G-[Si(OCH2—(C6H3)-3,5-(OCH2CH2NMe3^+I^−)2)]8]	33%	61%	–	induces hemagglutination	G4>Phe>IM16>IM8>NN	Ag+	Ag+++	Ag+++	–	–	capable of forming complexes with the ODN
C[N+](C)(C)CCO[Si](C)(CCC[Si](C)(CCC[Si](CCC[Si](C)(CCC[Si](C)(OCC[N+](C)(C)C)OCC[N+](C)(C)C)CCC[Si](C)(OCC[N+](C)(C)C)OCC[N+](C)(C)C)(CCC[Si](C)(CCC[Si](C)(OCC[N+](C)(C)C)OCC[N+](C)(C)C)CCC[Si](C)(OCC[N+](C)(C)C)OCC[N+](C)(C)C)CCC[Si](C)(CCC[Si](C)(OCC[N+](C)(C)C)OCC[N+](C)(C)C)CCC[Si](C)(OCC[N+](C)(C)C)OCC[N+](C)(C)C)CCC[Si](C)(OCC[N+](C)(C)C)OCC[N+](C)(C)C)OCC[N+](C)(C)C.[I-].[I-].[I-].[I-].[I-].[I-].[I-].[I-].[I-].[I-].[I-].[I-].[I-].[I-].[I-].[I-] [IM16, 2G-[Si(OCH2CH2NMe3^+I^−)2]8]	28%	67%	–	induces agglutination	G4>Phe>IM16>IM8>NN	O.K	Ag++	–	No cells	~100%	capable of retaining the DNA
